Data as given in ChEMBL document CHEMBL5338707, “Design, synthesis and bioactivity evaluation of favorable evodiamine derivative scaffold for developing cancer therapy” (Eur J Med Chem, 2022).
Calls of active or inactive are those of the source. The calls are words filed in the database; no cut-off is given here.

How the values were obtained:
[1] = target: T1, DNA topoisomerase 1 (Homo sapiens) (UniProt P11387); test: Inhibition of Topoisomerase 1 (unknown origin) at 50 uM incubated for 15 mins by electrophoretic analysis
T1 sequence (whole entry): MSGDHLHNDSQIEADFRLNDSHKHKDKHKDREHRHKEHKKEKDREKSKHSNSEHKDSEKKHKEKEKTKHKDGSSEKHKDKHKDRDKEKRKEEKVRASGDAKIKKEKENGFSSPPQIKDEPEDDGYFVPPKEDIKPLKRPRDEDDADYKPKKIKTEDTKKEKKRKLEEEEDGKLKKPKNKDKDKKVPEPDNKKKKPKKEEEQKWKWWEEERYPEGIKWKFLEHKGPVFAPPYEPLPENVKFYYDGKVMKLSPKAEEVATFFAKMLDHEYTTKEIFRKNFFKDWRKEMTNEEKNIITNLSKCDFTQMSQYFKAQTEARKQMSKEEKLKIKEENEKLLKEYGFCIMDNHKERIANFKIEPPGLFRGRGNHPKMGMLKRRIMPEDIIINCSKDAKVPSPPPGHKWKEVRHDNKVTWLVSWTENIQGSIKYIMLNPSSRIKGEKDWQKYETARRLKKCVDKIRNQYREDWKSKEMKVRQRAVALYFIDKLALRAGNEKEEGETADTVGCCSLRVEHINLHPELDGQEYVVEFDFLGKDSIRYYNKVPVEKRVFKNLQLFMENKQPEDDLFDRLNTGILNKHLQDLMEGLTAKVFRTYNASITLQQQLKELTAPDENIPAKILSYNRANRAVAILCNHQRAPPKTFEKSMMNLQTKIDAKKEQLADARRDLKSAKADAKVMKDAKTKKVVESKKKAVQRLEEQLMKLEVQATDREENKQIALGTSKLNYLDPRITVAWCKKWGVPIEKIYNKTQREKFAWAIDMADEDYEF

[2] = target: T1, DNA topoisomerase 1 (Homo sapiens); test: Inhibition of Topoisomerase 1 (unknown origin) at 25 uM incubated for 15 mins by electrophoretic analysis relative to control
[3] = target: T1, DNA topoisomerase 1 (Homo sapiens); test: Inhibition of Topoisomerase 1 (unknown origin) at 100 uM incubated for 15 mins by electrophoretic analysis
[4] = system: MGC-803; test: Cell cycle arrest in human MGC-803 cells assessed as accumulation of cells at S phase at 48 nM incubated for 24 hrs by PI staining based flow cytometric analysis (Rvb =7.84%); format: functional
[5] = system: MGC-803; test: Induction of apoptosis in human MGC-803 cells assessed as early apoptotic cells at 96 nM incubated for 24 hrs by AnnexinV-FITC/PI staining based flow cytometric analysis (reference value: 0.38%); format: functional
[6] = system: SGC-7901; test: Induction of apoptosis in human SGC-7901 cells assessed as necrotic cells at 96 nM incubated for 24 hrs by AnnexinV-FITC/PI staining based flow cytometric analysis (reference value: 0.63%); format: functional
[7] = system: SGC-7901; test: Cell cycle arrest in human SGC-7901 cells assessed as accumulation of cells at G0/G1 phase at 48 nM incubated for 24 hrs by PI staining based flow cytometric analysis (Rvb =84.12%); format: functional
[8] = system: MGC-803; test: Induction of apoptosis in human MGC-803 cells assessed as late apoptotic cells at 96 nM incubated for 24 hrs by AnnexinV-FITC/PI staining based flow cytometric analysis (reference value: 0.52%); format: functional
[9] = system: SGC-7901; test: Cell cycle arrest in human SGC-7901 cells assessed as accumulation of cells at G2/M phase at 48 nM incubated for 24 hrs by PI staining based flow cytometric analysis (Rvb =18.84%); format: functional
[10] = system: MGC-803; test: Induction of apoptosis in human MGC-803 cells assessed as viable cells at 96 nM incubated for 24 hrs by AnnexinV-FITC/PI staining based flow cytometric analysis (reference value: 98.59%); format: functional; conditions: read-out: Activity
[11] = system: MGC-803; test: Cell cycle arrest in human MGC-803 cells assessed as accumulation of cells at G2/M phase at 48 nM incubated for 24 hrs by PI staining based flow cytometric analysis (Rvb =15.42%); format: functional
[12] = system: SGC-7901; test: Induction of apoptosis in human SGC-7901 cells assessed as early apoptotic cells at 96 nM incubated for 24 hrs by AnnexinV-FITC/PI staining based flow cytometric analysis (reference value: 0.47%); format: functional
[13] = system: SGC-7901; test: Cell cycle arrest in human SGC-7901 cells assessed as accumulation of cells at S phase at 48 nM incubated for 24 hrs by PI staining based flow cytometric analysis (Rvb =18.41%); format: functional
[14] = system: MGC-803; test: Induction of apoptosis in human MGC-803 cells assessed as necrotic cells at 96 nM incubated for 24 hrs by AnnexinV-FITC/PI staining based flow cytometric analysis (reference value: 0.53%); format: functional
[15] = system: MGC-803; test: Cell cycle arrest in human MGC-803 cells assessed as accumulation of cells at G0/G1 phase at 48 nM incubated for 24 hrs by PI staining based flow cytometric analysis (Rvb =76.60%); format: functional
[16] = system: SGC-7901; test: Induction of apoptosis in human SGC-7901 cells assessed as late apoptotic cells at 96 nM incubated for 24 hrs by AnnexinV-FITC/PI staining based flow cytometric analysis (reference value: 2.00%); format: functional
[17] = system: SGC-7901; test: Induction of apoptosis in human SGC-7901 cells assessed as viable cells at 96 nM incubated for 24 hrs by AnnexinV-FITC/PI staining based flow cytometric analysis (reference value: 96.94%); format: functional; conditions: read-out: Activity
[18] = Toxicity in BALB/C mouse xenografted with human MGC-803 cells assessed as decrease in body weight at 0.5 mg/kg, ip administered once daily for 17 days; format: organism-based; conditions: in vivo, 408 h, time 17 day
[19] = system: MGC-803; test: Antitumor activity against human MGC-803 cells xenografted in BALB/C mouse assessed as tumor growth inhibition at 0.5 mg/kg, ip administered once a day for 17 days relative to control; format: functional; conditions: MGC-803, 408 h, time 17 day, read-out: TGI

inhibition [1]	inhibition [2]	inhibition [3]	Compound	Activity [4]	Activity [5]	Activity [6]	Activity [7]	Activity [8]	Activity [9]	viability at 0.096 µM [10]	Activity [11]	Activity [12]	Activity [13]	Activity [14]	Activity [15]	Activity [16]	viability at 0.096 µM [17]	Activity [18]	inhibition in vivo at 0.5 mg/kg [19]
Active	46.2%	Active	Cc1ccc2c(c1)C(=O)N1CCc3c([nH]c4ccc(C)cc34)C1N2c1cccc(F)c1 (stereo not drawn)	–	–	–	–	–	–	–	–	–	–	–	–	–	–	–	–
–	–	–	COc1cc([C@@H]2c3cc4c(cc3[C@@H](O[C@@H]3O[C@@H]5CO[C@@H](C)O[C@H]5[C@H](O)[C@H]3O)[C@H]3COC(=O)[C@H]23)OCO4)cc(OC)c1O [ETOPOSIDE]	6.96%	2.29%	0.91%	62.98%	9.4%	19.3%	87.5%	16.63%	0.75%	17.72%	0.8%	76.34%	10.98%	87.4%	–	–
–	–	–	CC[C@@]1(O)C(=O)OCc2c1cc1n(c2=O)Cc2cc3c(CN(C)C)c(O)ccc3nc2-1 [TOPOTECAN]	6.84%	5.23%	1.22%	58.3%	15.95%	22.72%	77%	13.27%	0.8%	18.52%	1.75%	79.72%	9.93%	88.1%	Toxic	67%
